According to patent US20190124918A1, “BIOFILM FORMATION INHIBITOR AND BIOFILM FORMATION INHIBITING COMPOSITION” (KAO CORPORATION, priority 2016, published 2019):

Tests used:
Type in all cases: cell-based
[1] = tested on: Pseudomonas PAO1 strain (ATCC 15692); test: Amount of biofilm formed (crystal violet, OD570), 96-well microplate culture
Method in brief: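 PAO1 suspension in Mueller Hinton Broth (OD600 1/10^6) grown stationary 24 h at 30 °C with compounds dried from ethanol plus DMSO, final about 7–333 ppm or as listed. Biofilm stained with 0.1% crystal violet, ethanol-eluted, OD570; inhibition % = {1−(compound OD570/ethanol-control OD570)}×100.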

[2] = tested on: cooling water taken from a water cooling tower; test: Aqueous system model (annular reactor): amount of biofilm formed on test pieces (OD570); details: Test Example 4; 15 ppm in cooling water, 30° C.; solvent control finally beyond 0.7
Experimental: (§1) Biofilm formation inhibitory activity of p-toluquinone (Tokyo Kasei) was evaluated by an aqueous system model using an annular reactor (Art Science Co., Ltd.) having a 100 mL-volume culture tank. In the culture tank of the annular reactor, a cylindrical rotating body rotating at a speed of 160 rounds per minute was installed. To the rotating body, 12 test pieces were attached in advance. These test pieces were taken out at predetermined time intervals and biofilm formed on the test pieces was quantified. From a water cooling tower provided on a building rooftop and actually used, cooling water was taken and supplied to the annular reactor culture vessel (maintained at 30° C.) at a flow rate of 10 mL per minute; at the same time, an ethanol solution (15 g/L) of p-toluquinone was separately supplied to the annular reactor culture vessel by a syringe pump YSP-201 (manufactured by YMC) at a flow rate of 10 μL per minute (p-toluquinone concentration in cooling water in the culture tank was 15 ppm). The test pieces (n=2) taken out from the culture tank at predetermined time intervals were stained with 0.1% crystal violet, thoroughly washed twice with physiological saline and recovered in ethanol (15 mL). The absorbance (OD570) was measured to obtain the amount of the biofilm formed. […] Thereafter, the number of bacteria cells was measured. […]

[3] = tested on: cooling water taken from a water cooling tower; test: Aqueous system model (annular reactor): number of bacterial cells in water at inlet and outlet (R2A agar); details: Test Example 4; 15 ppm in cooling water; solvent control also about 10^4
Experimental: as §1

[4] = tested on: biofilm-forming microbe isolated from cooling water taken from a water cooling tower; test: Biofilm inhibition test, quinone-based compound and chelating agent (OD570)
Experimental: A biofilm-forming microbe (microbe showing a OD570 value of 0.3 or more in the test for determining the amount of biofilm (the following section 2-4)) isolated from cooling water taken from a water cooling tower was cultured in R2A culture medium at 30° C. for 16 hours while shaking. The turbidity (OD600) of the resultant culture solution was measured. The culture solution was diluted with R2A culture medium to prepare a suspension of 10^3 cfu/mL.
Predetermined amounts of p-toluquinone and HEDP were weighed and solvent (MDG) was added to prepare a composition. Since citric acid and EDTA were not dissolved in MDG, they were directly added in culture solutions; at the same time, p-toluquinone was directly added to the culture solutions.
The suspension of a test microbe prepared in the above section 2-1) was added in individual wells of a 96 well microplate in an amount of 150 μL, and then, the test solutions prepared in the above section 2-2) was each added and culture was initiated.
After the 96 well microplate was subjected to stationary culture performed at 30° C. for 48 hours, the culture solution was removed and the resultant microplate was washed with water. Subsequently, each well was stained with 0.1% crystal violet and 200 μL of ethanol was added. The absorbance (OD570) was measured to obtain the amount of biofilm (BF) formed.

CC1=CC(=O)C=CC1=O [Compound a, p-Toluquinone]
The amount of the biofilm formed OD570 ([1]; final concentration 7 ppm, EtOH control 0.9163): 0.7549
BF inhibition (%) ([1]; final concentration 17 ppm): 18.6%
The amount of the biofilm formed OD570 ([1]; final concentration 20 ppm, EtOH control 0.9564): 0.8231
BF inhibition (%) ([1]; final concentration 33 ppm): 36.6%
The amount of the biofilm formed OD570 ([1]; final concentration 33 ppm, EtOH control 0.8974): 0.7891
BF inhibition (%) ([1]; final concentration 66 ppm): 39.9%
The amount of the biofilm formed OD570 ([1]; final concentration 67 ppm, EtOH control 0.8853): 0.7094
BF inhibition (%) ([1]; final concentration 99 ppm): 73.7%
BF inhibition (%) ([1]; final concentration 116 ppm): 86.3%
BF inhibition (%) ([1]; final concentration 132 ppm): 85.1%
The amount of the biofilm formed OD570 ([1]; final concentration 200 ppm, EtOH control 0.9248): 0.7089
The amount of the biofilm formed OD570 ([1]; final concentration 333 ppm, EtOH control 0.9562): 0.1222
biofilm formation (in words) ([1]; high concentration range of 200 ppm or more): inhibited
biofilm formation (in words) ([1]; low concentration range of less than 200 ppm): inhibited
amount of the biofilm formed (OD570) [2]: ≤ 0.2
number of bacterial cells at the inlet or outlet of the reactor [3]: about 10^4 cells/mL
BF inhibitory effect of combined use of HEDP and p-toluquinone compared with p-toluquinone alone ([4]; Experiment No. 2 compared to Nos. 5 to 8): higher
OD570 ([4]; Experiment No. 12: Toluquinone 5 ppm, Citric acid 0 ppm, 0 ppm/0 ppm gave 0.329): 0.236
BF inhibitory effect of combined use of citric acid and p-toluquinone compared with p-toluquinone alone ([4]; Experiment No. 12 compared to Nos. 15 to 18): higher
OD570 ([4]; Experiment No. 13: Toluquinone 10 ppm, Citric acid 0 ppm, 0 ppm/0 ppm gave 0.329): 0.048
OD570 ([4]; Experiment No. 14: Toluquinone 20 ppm, Citric acid 0 ppm, 0 ppm/0 ppm gave 0.329): 0.051
OD570 ([4]; Experiment No. 15: Toluquinone 5 ppm, Citric acid 0.5 ppm, 0 ppm/0 ppm gave 0.329): 0.057
OD570 ([4]; Experiment No. 16: Toluquinone 5 ppm, Citric acid 2.5 ppm, 0 ppm/0 ppm gave 0.329): 0.054
OD570 ([4]; Experiment No. 17: Toluquinone 5 ppm, Citric acid 5 ppm, 0 ppm/0 ppm gave 0.329): 0.054
OD570 ([4]; Experiment No. 18: Toluquinone 5 ppm, Citric acid 10 ppm, 0 ppm/0 ppm gave 0.329): 0.053
OD570 ([4]; Experiment No. 21: Tuluquinone 5 ppm, EDTA 0 ppm, 0 ppm/0 ppm gave 0.407): 0.358
BF inhibitory effect of combined use of EDTA and p-toluquinone compared with p-toluquinone alone ([4]; Experiment No. 21 compared to Nos. 24 to 26): higher
OD570 ([4]; Experiment No. 22: Tuluquinone 10 ppm, EDTA 0 ppm, 0 ppm/0 ppm gave 0.407): 0.048
OD570 ([4]; Experiment No. 23: Tuluquinone 20 ppm, EDTA 0 ppm, 0 ppm/0 ppm gave 0.407): 0.051
OD570 ([4]; Experiment No. 24: Tuluquinone 5 ppm, EDTA 2.5 ppm, 0 ppm/0 ppm gave 0.407): 0.151
OD570 ([4]; Experiment No. 25: Tuluquinone 5 ppm, EDTA 5 ppm, 0 ppm/0 ppm gave 0.407): 0.077
OD570 ([4]; Experiment No. 26: Tuluquinone 5 ppm, EDTA 10 ppm, 0 ppm/0 ppm gave 0.407): 0.078
